“And” between values parts separate entries of the source, which are not always exact repeats. Identical values can stand only once. Inconclusive results and toxic doses are left out.

The assay deals with L1210 leukemia ip in BDF1 mice, survival T/C. Put plainly: NCI In Vivo Anticancer Drug Screen. Data for tumor model L1210 Leukemia (intraperitoneal) in B6D2F1 (BDF1) mice. As to conditions: endpoint: mean survival time, higher = longer survival. The gist of the method: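 Tumor cells were implanted, animals were treated, and survival was followed. The result divides the treated measurement by the vehicle-control measurement.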

Setting [1] is: dose: 100.0 mg/kg/injection, schedule: Q01DX009 (ip), vehicle: Klucel (hydroxypropylcellulose) (HPC).
Where [2] appears, read: dose: 200.0 mg/kg/injection, schedule: Q01DX009 (ip), vehicle: Klucel (hydroxypropylcellulose) (HPC).
The mark [3] stands for this setting: dose: 400.0 mg/kg/injection, schedule: Q01DX009 (ip), vehicle: Klucel (hydroxypropylcellulose) (HPC).
[4] abbreviates: dose: 100.0 mg/kg/injection, schedule: Q01DX001 (ip), vehicle: saline.
The mark [5] stands for this setting: dose: 200.0 mg/kg/injection, schedule: Q01DX001 (ip), vehicle: saline.
[6] abbreviates: dose: 400.0 mg/kg/injection, schedule: Q01DX001 (ip), vehicle: saline.
[7] abbreviates: dose: 12.5 mg/kg/injection, schedule: Q01DX009 (ip), vehicle: saline with Tween-80.
[8] abbreviates: dose: 100.0 mg/kg/injection, schedule: Q04DX003 (ip), vehicle: saline with Tween-80.
Setting [9] is: dose: 200.0 mg/kg/injection, schedule: Q04DX003 (ip), vehicle: saline with Tween-80.
[10] abbreviates: dose: 400.0 mg/kg/injection, schedule: Q04DX003 (ip), vehicle: saline with Tween-80.
Where [11] appears, read: dose: 100.0 mg/kg/injection, schedule: Q01DX001 (ip), vehicle: saline with Tween-80.

Turning to `C[n+]1ccc(/C=C/c2c(Cl)cccc2Cl)c2ccccc21`, the T/C was 94 % of control (dose: 3.13 mg/kg/injection, schedule: Q04DX003 (ip), vehicle: Klucel (hydroxypropylcellulose) (HPC)); 98 % of control (dose: 6.25 mg/kg/injection, schedule: Q04DX003 (ip), vehicle: Klucel (hydroxypropylcellulose) (HPC)); 93 % of control (dose: 12.5 mg/kg/injection, schedule: Q04DX003 (ip), vehicle: Klucel (hydroxypropylcellulose) (HPC)).

For `Cc1nnc(NC(=O)C(Cl)Cl)s1`, the T/C (dose: 100.0 mg/kg/injection, schedule: Q01DX001 (ip), vehicle: other) is 96 % of control; the T/C under setting [1] is 96 % of control; the T/C (dose: 100.0 mg/kg/injection, schedule: Q04DX003 (ip), vehicle: other) is 95 % of control; the T/C (dose: 200.0 mg/kg/injection, schedule: Q01DX001 (ip), vehicle: other) is 98 % of control; the T/C under setting [2] is 90 % of control; the T/C (dose: 200.0 mg/kg/injection, schedule: Q04DX003 (ip), vehicle: other) is 96 % of control. For the same compound, the T/C is 101 % of control (dose: 400.0 mg/kg/injection, schedule: Q01DX001 (ip), vehicle: other); 93 % of control under setting [3]; 87 % of control (dose: 400.0 mg/kg/injection, schedule: Q04DX003 (ip), vehicle: other).

As for `COC(=O)c1cn[nH]c1/N=N/N(C)C`, the T/C runs as follows: (dose: 25.0 mg/kg/injection, schedule: Q01DX009 (ip), vehicle: other) 120 % of control; (dose: 58.0 mg/kg/injection, schedule: Q01DX009 (ip), vehicle: other) 156 % of control; (dose: 88.0 mg/kg/injection, schedule: Q01DX009 (ip), vehicle: other) 163 % of control; under setting [4], 107 % of control; (dose: 133.0 mg/kg/injection, schedule: Q01DX009 (ip), vehicle: saline) 155 % of control; under setting [5], 120 % of control. Moreover, the T/C was 156 % of control (dose: 200.0 mg/kg/injection, schedule: Q01DX009 (ip), vehicle: saline) and 122 % of control under setting [6].

On to `O=C(Nc1ncc([N+](=O)[O-])s1)c1ccc([N+](=O)[O-])cc1Cl`, for which the T/C by setting is: (dose: 5.0 mg/kg/injection, schedule: Q01DX009 (ip), vehicle: Klucel (hydroxypropylcellulose) (HPC)) 94 % of control; (dose: 5.0 mg/kg/injection, schedule: Q04DX003 (ip), vehicle: Klucel (hydroxypropylcellulose) (HPC)) 100 % of control; (dose: 10.0 mg/kg/injection, schedule: Q01DX009 (ip), vehicle: Klucel (hydroxypropylcellulose) (HPC)) 92 % of control; (dose: 10.0 mg/kg/injection, schedule: Q04DX003 (ip), vehicle: Klucel (hydroxypropylcellulose) (HPC)) 95 % of control; (dose: 20.0 mg/kg/injection, schedule: Q01DX009 (ip), vehicle: Klucel (hydroxypropylcellulose) (HPC)) 99 % of control; (dose: 20.0 mg/kg/injection, schedule: Q04DX003 (ip), vehicle: Klucel (hydroxypropylcellulose) (HPC)) 94 % of control.

For `CNC(=O)NC1CCC(C)CC1` (stereo unspecified), the T/C reads like this: under setting [4], 95 % of control; under setting [5], 95 % of control; under setting [6], 97 % of control.

`COC(=O)C(C)C(=O)O` (stereo unspecified): the T/C by setting is: (dose: 100.0 mg/kg/injection, schedule: Q04DX002 (ip), vehicle: saline) 90 % of control; (dose: 200.0 mg/kg/injection, schedule: Q04DX002 (ip), vehicle: saline) 97 % of control; (dose: 400.0 mg/kg/injection, schedule: Q04DX002 (ip), vehicle: saline) 90 % of control.

In the case of `COc1ccc(/C=C/c2cnccn2)cc1OC`, the T/C is, setting by setting: under setting [1], 101 % of control; under setting [2], 101 % of control; under setting [3], 106 % of control.

As to `O=S(=O)(Oc1ccc(Br)cc1)C1CC1c1ccccc1` (stereo unspecified), the T/C is, setting by setting: under setting [4], 106 % of control; under setting [5], 98 % of control; under setting [6], 103 % of control.

With `CCN(CC)c1nc(SCc2ccccc2Cl)ncc1C`, the T/C (dose: 100.0 mg/kg/injection, schedule: Q01DX Z (ip), vehicle: methylcellulose (MC)) was 93 % of control and the T/C (dose: 200.0 mg/kg/injection, schedule: Q01DX Z (ip), vehicle: methylcellulose (MC)) was 98 % of control.

On to `CC1=NNC(C)(C)C1`, for which the T/C is, setting by setting: (dose: 100.0 mg/kg/injection, schedule: Q04DX003 (ip), vehicle: saline) 91 % of control; (dose: 200.0 mg/kg/injection, schedule: Q04DX003 (ip), vehicle: saline) 93 % of control; (dose: 400.0 mg/kg/injection, schedule: Q04DX003 (ip), vehicle: saline) 98 % of control.

For the compound `C/C=C/C[P+](Cc1ccccc1)(c1ccccc1)c1ccccc1`, the T/C (dose: 3.13 mg/kg/injection, schedule: Q01DX009 (ip), vehicle: saline with Tween-80) was 103 % of control; the T/C under setting [7] was 120 % of control and 91 % of control.

On to `Clc1ccc(/C=N/Nc2nc3ccccc3s2)c(Cl)c1`, for which the T/C was 93 % of control under setting [8]; 105 % of control (dose: 111.0 mg/kg/injection, schedule: Q01DX Z (ip), vehicle: methylcellulose (MC)); 98 % of control (dose: 166.0 mg/kg/injection, schedule: Q01DX Z (ip), vehicle: methylcellulose (MC)); 93 % of control under setting [9]; 103 % of control (dose: 250.0 mg/kg/injection, schedule: Q01DX Z (ip), vehicle: methylcellulose (MC)); 93 % of control under setting [10].

With `O=C1CCC(=O)N1`, the T/C (dose: 100.0 mg/kg/injection, schedule: Q04DX003 (ip), vehicle: Klucel (hydroxypropylcellulose) (HPC)) was 103 % of control; the T/C (dose: 200.0 mg/kg/injection, schedule: Q04DX003 (ip), vehicle: Klucel (hydroxypropylcellulose) (HPC)) is 102 % of control; the T/C (dose: 400.0 mg/kg/injection, schedule: Q04DX003 (ip), vehicle: Klucel (hydroxypropylcellulose) (HPC)) is 100 % of control.

`S=C(S)Nc1ccccc1`: the T/C was 95 % of control (dose: 25.0 mg/kg/injection, schedule: Q01DX001 (ip), vehicle: Klucel (hydroxypropylcellulose) (HPC)); 92 % of control (dose: 50.0 mg/kg/injection, schedule: Q01DX001 (ip), vehicle: Klucel (hydroxypropylcellulose) (HPC)); 94 % of control and 95 % of control (dose: 100.0 mg/kg/injection, schedule: Q01DX001 (ip), vehicle: Klucel (hydroxypropylcellulose) (HPC)).

Turning to `C(CC1CC1)OCOCCC1CC1`, the T/C runs as follows: under setting [11], 93 % of control; (dose: 200.0 mg/kg/injection, schedule: Q01DX001 (ip), vehicle: saline with Tween-80) 97 % of control.

Consider `CCCCNS(=O)(=O)CCCC`, for which the T/C was 105 % of control under setting [8], 101 % of control under setting [9] and 97 % of control under setting [10].

Take `C=C(Cl)CNCC`: the T/C reads like this: under setting [7], 91 % of control; (dose: 25.0 mg/kg/injection, schedule: Q01DX009 (ip), vehicle: saline with Tween-80) 97 % of control; (dose: 50.0 mg/kg/injection, schedule: Q01DX009 (ip), vehicle: saline with Tween-80) 119 % of control.

Turning to `O=C(NS(=O)(=O)c1ccc(Cl)cc1)c1ccccc1`, the T/C was 94 % of control (dose: 100.0 mg/kg/injection, schedule: Q01DX009 (ip), vehicle: saline with Tween-80); 104 % of control (dose: 100.0 mg/kg/injection, schedule: Q04DX003 (ip), vehicle: acetone); 107 % of control (dose: 200.0 mg/kg/injection, schedule: Q04DX003 (ip), vehicle: acetone); 93 % of control (dose: 400.0 mg/kg/injection, schedule: Q04DX003 (ip), vehicle: acetone).

As for `CCCCC(=O)N/N=C/c1cc(I)cc(I)c1O`, the T/C is, setting by setting: under setting [4], 87 % of control; under setting [5], 89 % of control; under setting [6], 87 % of control.

As for `O=C1c2ccccc2-c2ccc(N3C(=O)c4ccccc4C3=O)cc21`, the T/C runs as follows: (dose: 16.5 mg/kg/injection, schedule: Q01DX001 (ip), vehicle: saline with Tween-80) 88 % of control; (dose: 37.5 mg/kg/injection, schedule: Q01DX001 (ip), vehicle: saline with Tween-80) 92 % of control; (dose: 50.0 mg/kg/injection, schedule: Q01DX001 (ip), vehicle: saline with Tween-80) 95 % of control; under setting [11], 91 % of control.

Values taken from PubChem BioAssay AID248 (DTP/NCI, 2004).
